Test results as given in US11197831B2, “Compositions comprising at least one dispersed active principle and lipid microcapsules” (GALDERMA RESEARCH & DEVELOPMENT, priority 2015, dated 2021).

Columns and labels:
[1] = Maximum or visual solubility of the active ingredient in fatty substances and solvents (HPLC-UV); format: physicochemical
Description: (§1) The solubility and the stability of the active ingredient were evaluated by liquid chromatography coupled to a UV detector (HPLC-UV).
The solubility of the active ingredient was evaluated by liquid chromatography coupled to a UV detector (HPLC-UV).

[2] = Stability of the active ingredient in fatty substances and solvents (HPLC-UV); format: physicochemical
Description: as §1

[3] = system: Whole human abdominal skin; experiment: In vitro skin penetration kinetics of dispersed Trifarotene (Franz cells, LC/MS/MS); format: in vitro ADME; conditions: irrespective of the formulation tested; 24 h
Description: In this study, the formulations were applied for 24 hours to the skin surface. After the application, Trifarotene is quantified at several points in time (1 h, 3 h, 6 h, 8 h and 24 h) in the various skin compartments: stratum corneum, epidermis, dermis, and receiving liquid according to a validated bioanalysis method performed by positive electrospray ionization tandem mass spectrometry, using a Xevo system (Waters). The quantification limit for Trifarotene is 0.01 ng/mL. […] [table] The results presented in FIG. 1 show the amount penetrated as a percentage of the dose applied (% of the dose applied) according to the various skin compartments after 24 h of exposure. The total amount penetrated corresponds to the amount of active ingredient assayed in the various skin compartments (stratum corneum, epidermis, dermis) and the receiving liquid. FIGS. 3 and 4 present the areas under the curve (AUCs) calculated respectively after 8 hours, corresponding to the shortest exposure times, and after 24 hours, corresponding to the longest exposure times. The AUCs were calculated for each kinetics (n=6). They were then statistically compared by one-way ANOVA followed by Dunnett's test.

[4] = system: Whole human abdominal skin; experiment: In vitro skin penetration of dispersed Compound A2 (Franz cells, LC/MS/MS); format: in vitro ADME; conditions: irrespective of the formulation tested; 24 h
Description: In this study, the formulations were applied for 24 hours to the skin surface. At the end of the application, Compound A2 is quantified in the various skin compartments: stratum corneum, epidermis, dermis, and receiving liquid according to a validated bioanalysis method performed by positive electrospray ionization tandem mass spectrometry, using a Xevo system (Waters). The quantification limit for Compound A2 is 2 ng/mL. The LC/MS/MS conditions developed made it possible to detect up to 0.1% of the dose applied in each compartment (dose not absorbed, stratum, epidermis, dermis, and receiving liquid).
The results presented in FIG. 5 show the amount penetrated as a percentage of the dose applied (% of the dose applied) according to the various skin compartments.

[5] = in Capric/caprylic acid triglycerides (Miglyol ® 812N)
[6] = in Diisopropyl adipate (Schercemol Dia Ester)
[7] = in PPG-15 stearyl ether (Arlamol PS11E-LQ)
[8] = in Octyldodecanol (Eutanol ® G)
[9] = in Propylene glycol dicaprylate/dicaprate (Myritol ® PC)

## Cc1cc(COc2ccc(S(=O)(=O)NC[C@@H](C(=O)NO)N3CCN(S(=O)(=O)C(C)C)CC3)cc2)c2ccccc2n1 [Compound A3, (S)—N-hydroxy-3-[4-(2-methyl-quinolin-4-ylmethoxy)-benzenesulfonylamino]-2-[4-(propane-2-sulfonyl)-piperazin-1-yl]-propionamide]
[1]; in 10/90% Dimethyl sulfoxide/C12-15 alkyl lactate
  Maximum or visual* solubility (% w/w) (AT): 0.12 % w/w
[1]; in 10/90% Dimethyl sulfoxide/Diisopropyl adipate
  Maximum or visual* solubility (% w/w) (AT): 0.38 % w/w
[1]; in 10/90% Dimethyl sulfoxide/PPG-15 stearyl ether
  Maximum or visual* solubility (% w/w) (AT): 0.07 % w/w
[1]; in 20/80% Dimethyl sulfoxide/C12-15 alkyl lactate
  Maximum or visual* solubility (% w/w) (AT): 0.74 % w/w
[1]; in 20/80% Dimethyl sulfoxide/Schercemol Dia Ester
  Maximum or visual* solubility (% w/w) (AT): 3.15 % w/w
[1]; in C12-15 alkyl lactate (Ceraphyl 41)
  Maximum or visual* solubility (% w/w) (AT): 0.04 % w/w
[1]; [5]
  Maximum or visual* solubility (% w/w) (AT): <detection limit
[1]; [6]
  Maximum or visual* solubility (% w/w) (AT): 0.02 % w/w
[1]; [7]
  Maximum or visual* solubility (% w/w) (AT): 0.01 % w/w
[1]; visual*, in Dimethyl sulfoxide (Procipient DMSO)
  Maximum or visual* solubility (% w/w) (AT): >20%* % w/w

## CC(C)(C)c1cc(-c2cc(-c3ccc(C(=O)O)cc3)ccc2OCCO)ccc1N1CCCC1 [Trifarotene]
[1]; in Alkyl (C12-15) benzoate (Crodamol AB)
  Maximum solubility (% w/w) (AT): 0.026 % w/w
[1]; [5]
  Maximum solubility (% w/w) (AT): 0.019 % w/w
[1]; [6]
  Maximum solubility (% w/w) (AT): 0.297 % w/w
[1]; in Macrogol oleate (Labrafil ® M1944CS)
  Maximum solubility (% w/w) (AT): 0.156 % w/w
[1]; in Mineral oil
  Maximum solubility (% w/w) (AT): 0.0001 % w/w
[1]; [8]
  Maximum solubility (% w/w) (AT): 0.137 % w/w
[1]; [7]
  Maximum solubility (% w/w) (AT): 0.292 % w/w
[1]; [9]
  Maximum solubility (% w/w) (AT): 0.069 % w/w
[1]; in Propylene glycol monocaprylate (Capryol ® 90)
  Maximum solubility (% w/w) (AT): 0.802 % w/w
[1]; in Propylene glycol monolaurate (Lauroglycol ® FCC)
  Maximum solubility (% w/w) (AT): 0.296 % w/w
[1]; in Sweet almond oil
  Maximum solubility (% w/w) (AT): 0.011 % w/w
[2]; AT/40° C., in Capric/caprylic acid triglycerides (Miglyol ® 812N)
  Stability: 6 months
[2]; AT/40° C., in Diisopropyl adipate (Schercemol Dia Ester)
  Stability: 6 months
[2]; AT/40° C., in Macrogol oleate (Labrafil ® M1944CS)
  Stability: 6 months
[2]; AT/40° C., in PPG-15 stearyl ether (Arlamol PS11E-LQ)
  Stability: 6 months
[2]; AT/40° C., in Propylene glycol monocaprylate (Capryol ® 90)
  Stability: 6 months
[2]; AT/40° C., in Propylene glycol monolaurate (Lauroglycol ® FCC)
  Stability: 6 months
[2]; AT/40° C., in Sweet almond oil
  Stability: 6 months
[2]; [8]
  Stability: Unstable
[2]; [9]
  Stability: Unstable
[3]
  skin distribution: essentially located in the stratum corneum and the epidermis, and more moderately in the dermis

## C[C@H](NC(=O)N1CCC(c2ccc(O)cc2O)CC1)c1ccccc1 [Compound A2, (S)-4-(2,4-dihydroxyphenyl)-N-(1-phenylethyl)piperidine-1-carboxamide]
[1]; in Diethylene glycol monoethyl ether (Transcutol HP)
  Maximum or visual* solubility (% w/w) (AT): 13.9 % w/w
[1]; visual*, in Capric/caprylic acid triglycerides (Miglyol ® 812N)
  Maximum or visual* solubility (% w/w) (AT): <0.1* % w/w
[1]; visual*, in Diisopropyl adipate (Schercemol Dia Ester)
  Maximum or visual* solubility (% w/w) (AT): <1.0* % w/w
[1]; visual*, in Dimethyl capramide (Spectrasolv DMDA)
  Maximum or visual* solubility (% w/w) (AT): 20-30* % w/w
[1]; visual*, in PPG-15 stearyl ether (Arlamol PS11E-LQ)
  Maximum or visual* solubility (% w/w) (AT): <1.0* % w/w
[2]; 3M, AT/40° C., in Diethylene glycol monoethyl ether (Transcutol HP), ** Appearance of coloring at AT and at 40° C.
  Stability (3M) (AT/40° C.): Stable **
[4]
  skin distribution: essentially located in the stratum corneum and the epidermis, and more moderately in the dermis
